From ChEMBL document CHEMBL5223101, “Evolution of 3-(4-hydroxyphenyl)indoline-2-one as a scaffold for potent and selective anticancer activity” (RSC Med Chem, 2022)
pIC50: −log10 of the molar value.

Columns and labels:
MDA-MB-231 [1] = assay: Anticancer activity against human MDA-MB-231 cells assessed as cell growth inhibition incubated for 24 hrs; assay type: functional, cell-based; details: MDA-MB-231, 24 h, pooled result: one value given for 13 cell lines, strains, targets or settings
T47D [2] = assay: Anticancer activity against human T47D cells assessed as cell growth inhibition incubated for 24 hrs; assay type: functional, cell-based; details: pooled result: one value given for 16 cell lines, strains, targets or settings
T47D [3] = assay: Anticancer activity against human T47D cells assessed as cell proliferation incubated for 4 days by MTS assay; assay type: functional, cell-based; details: 96 h
BT-474 = assay: Anticancer activity against human BT-474 cells assessed as cell viability at 1 uM by tryphan blue staining based cell counter analysis relative to control; assay type: functional; details: read-out: Activity
MCF-10A = assay: Anticancer activity against human MCF-10A cells assessed as cell viability at 1 uM by tryphan blue staining based cell counter analysis relative to control; assay type: functional; details: read-out: Activity
MDA-MB-231 [4] = assay: Anticancer activity against human MDA-MB-231 cells assessed as cell viability at 1 uM by tryphan blue staining based cell counter analysis relative to control; assay type: functional; details: read-out: Activity
T47D [5] = assay: Anticancer activity against human T47D cells assessed as cell viability at 1 uM by tryphan blue staining based cell counter analysis relative to control; assay type: functional; details: read-out: Activity
ES-2 = assay: Anticancer activity against human ES2 assessed as cell viability at 1 uM by tryphan blue staining based cell counter analysis relative to control; assay type: functional; details: read-out: Activity
HeLa = assay: Anticancer activity against human HeLa cells assessed as cell viability at 1 uM by tryphan blue staining based cell counter analysis relative to control; assay type: functional; details: read-out: Activity
MCF7 = assay: Anticancer activity against human MCF7 cells assessed as cell viability at 1 uM by tryphan blue staining based cell counter analysis relative to control; assay type: functional; details: read-out: Activity
HEK-293T = assay: Anticancer activity against human HEK293T cells assessed as cell viability at 1 uM by tryphan blue staining based cell counter analysis relative to control; assay type: functional; details: read-out: Activity

Row | pIC50 (MDA-MB-231 [1]) | pIC50 (T47D [2]) | Compound | pIC50 (T47D [3]) | viability at 1 µM (BT-474) | viability at 1 µM (MCF-10A) | viability at 1 µM (MDA-MB-231 [4]) | viability at 1 µM (T47D [5]) | viability at 1 µM (ES-2) | viability at 1 µM (HeLa) | viability at 1 µM (MCF7) | viability at 1 µM (HEK-293T)
1 | 4.91 | 7.47 | O=C1Nc2c(C(F)(F)F)cccc2[C@@]1(c1ccc(O)cc1)c1ccc(OC(F)(F)F)cc1 |  |  |  |  |  |  |  |  | 
2 |  |  | Cc1cccc2c1NC(=O)C2(c1ccc(O)cc1)c1ccc(O)cc1 | 7.82 | < 20% | < 20% | < 20% | < 20% | < 20% | < 20% | < 20% | < 20%
